Assay: Western blot analysis for "B" compounds
Assay type: cell-based
Conditions: read-out: Traditional Western Degradation Potency (DC50)
Outline: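 Target protein levels given as relative mean band intensity over GAPDH from scanned immunoblots. Lysates of treated cells in RIPA buffer, equalized by BCA, separated on 10% gels and transferred to PVDF.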

| SMILES | DC50 [nM] |
| --- | --- |
| O=C1CCC(N2Cc3cc4c(cc3C2=O)CN(CC(=O)N2CCC3(CC2)CN(c2ccc([C@@H]5c6ccc(O)cc6CC[C@@H]5c5ccccc5)cc2)C3)C4)C(=O)N1 (mixture of isomers) [Compound B183, 3-(6-(2-(2-(4-((1R,2S)-6-hydroxy-2-phenyl-1,2,3,4-tetrahydronaphthalen-1-yl)phenyl)-2,7-diazaspiro[3.5]nonan-7-yl)-2-oxoethyl)-1-oxo-3,5,6,7-tetrahydropyrrolo[3,4-f]isoindol-2(1H)-yl)piperidine-2,6-dione] | < 10 |
| O=C1CCC(N2C(=O)c3cc4c(cc3C2=O)CN(CC(=O)N2CC3(CCN(c5ccc([C@@H]6c7ccc(O)cc7CC[C@@H]6c6ccccc6)cc5)CC3)C2)CC4)C(=O)N1 (mixture of isomers) [Compound B192, 2-(2,6-dioxopiperidin-3-yl)-6-(2-(7-(4-((1R,2S)-6-hydroxy-2-phenyl-1,2,3,4-tetrahydronaphthalen-1-yl)phenyl)-2,7-diazaspiro[3.5]nonan-2-yl)-2-oxoethyl)-5,6,7,8-tetrahydro-1H-pyrrolo[3,4-g]isoquinoline-1,3(2H)-dione] | 10 to 100 |
| O=C1CCC(N2C(=O)c3cc4c(cc3C2=O)CN([C@H]2CC[C@H](C(=O)N3CC(Oc5ccc([C@@H]6c7ccc(O)cc7CC[C@@H]6c6ccccc6)cc5)C3)CC2)C4)C(=O)N1 (stereo partly drawn) [Compound B122, 2-(2,6-dioxopiperidin-3-yl)-6-((1S,4r)-4-(3-(4-((1R,2S)-6-hydroxy-2-phenyl-1,2,3,4-tctrahydronaphthalcn-1-yl)phenoxy)azetidine-1-carbonyl)cyclohexyl)-6,7-dihydropyrrolo[3,4-f]isoindole-1,3(2H,5H)-dione] | 10 to 100 |

Second part, the compound after the results:

| DC50 [nM] | SMILES |
| --- | --- |
| < 10 | O=C1CCC(N2C(=O)c3cc4c(cc3C2=O)CN(C(=O)C2CCN(C3CCN(c5ccc([C@@H]6c7ccc(O)cc7CC[C@@H]6c6ccc(F)cc6)cc5)CC3)CC2)C4)C(=O)N1 (mixture of isomers) [Compound B6, 2-(2,6-dioxopiperidin-3-yl)-6-(1′-(4-((1R,2S)-2-(4-fluorophenyl)-6-hydroxy-1,2,3,4-tetrahydronaphthalen-1-yl)phenyl)-[1,4'-bipiperidine]-4-carbonyl)-6,7-dihydropyrrolo[3,4-f]isoindole-1,3(2H,5H)-dione] |
| > 100 | O=C1CCC(N2C(=O)c3cc4c(cc3C2=O)CN(CC(=O)N2CCC3(CCC(Oc5ccc([C@@H]6c7ccc(O)cc7CC[C@@H]6c6ccccc6)cc5)CC3)CC2)C4)C(=O)N1 (stereo partly drawn) [Compound B279, 2-(2,6-dioxopiperidin-3-yl)-6-(2-(9-(4-((1R,2S)-6-hydroxy-2-phenyl-1,2,3,4-tetrahydronaphthalen-1-yl)phenoxy)-3-azaspiro[5.5]undecan-3-yl)-2-oxoethyl)-6,7-dihydropyrrolo[3,4-f]isoindole-1,3(2H,5H)-dione] |
| > 100 | O=C1CCC(N2C(=O)c3cc4c(cc3C2=O)CN(C[C@H]2CC[C@H](N3CC(Nc5ccc([C@@H]6c7ccc(O)cc7CC[C@@H]6c6ccccc6)cc5)C3)CC2)C4)C(=O)N1 (stereo partly drawn) [Compound B118, 2-(2,6-dioxopiperidin-3-yl)-6-(((1R,4r)-4-(3-((4-((1R,2S)-6-hydroxy-2-phenyl-1,2,3,4-tetrahydronaphthalen-1-yl)phenyl)amino)azetidin-1-yl)cyclohexyl)methyl)-6,7-dihydropyrrolo[3,4-f]isoindole-1,3(2H,5H)-dione] |
| > 100 | O=C1CCC(N2C(=O)c3cc4c(cc3C2=O)CN(CC(=O)N2CC3(CCN(c5ccc([C@@H]6c7ccc(O)cc7CC[C@@H]6c6ccccc6)cc5)CC3)C2)CCC4)C(=O)N1 (mixture of isomers) [Compound B261, 2-(2,6-dioxopiperidin-3-yl)-6-(2-(7-(4-((1R,2S)-6-hydroxy-2-phenyl-1,2,3,4-tetrahydronaphthalen-1-yl)phenyl)-2,7-diazaspiro[3.5]nonan-2-yl)-2-oxoethyl)-6,7,8,9-tetrahydroazepino[3,4-f]isoindole-1,3(2H,5H)-dione] |

— US20260028354A1, “TETRAHYDRONAPHTHALENE DERIVATIVES AS ESTROGEN RECEPTOR DEGRADERS” (REGENT OF THE UNIVERSITY OF MICHIGAN, priority 2022, published 2026)
